In ChEMBL document CHEMBL3301361, “Experimental in vitro DMPK and physicochemical data on a set of publicly disclosed compounds”:
≈ marks a conversion by molar mass, not a printed value.

Legend:
physchem [1] = assay: physchem
in vitro [2] = conditions: human
in vitro [3] = conditions: hepatocytes
in vitro [4] = conditions: SD, HW or BN, rat, plasma
physchem [5] = conditions: octan-1-ol/water
in vitro [6] = conditions: Beagle, dog, plasma
physchem [7] = assay: physchem; remark: listed apart in the source
in vitro [8] = conditions: human, plasma
physchem [9] = conditions: pH 7.4 buffer
in vitro [10] = conditions: human, hepatocytes

Structure (SMILES)	pKa (physchem [1])	logD (physchem [5]; pH 7.4, LogD7.4)	fraction unbound at 5 h (in vitro [8]; PPB)	further results
Cn1c(=O)c2nn[nH]c2n(C)c1=O	4.4			
Cc1nn(-c2ccccc2)c(NC(=O)NS(=O)(=O)c2ccc(Cl)cc2)c1C#N	2.3			microsomal CLint (in vitro [2]; microsomes): < 3 µL/min/mg; hepatocyte CLint (in vitro [3]): 21.5 µL/min/1e6 cells; fraction unbound at 5 h (in vitro [4]): 0.0175
CCCc1c2nccc(Cl)c2cc2c(=O)cc(C(=O)O)oc12	2.5			
O=C(O)c1cc(=O)c2cc(Cl)ccc2o1	< 2			
COc1ccc2c(=O)cc(C(=O)O)oc2c1	< 2			
CC1=C(CC(=O)O)c2cc(F)ccc2/C1=C\c1ccc([S+](C)[O-])cc1 (stereo not drawn)	3.9	-0.01		microsomal CLint (in vitro [2]; liver microsomes): < 3 µL/min/mg
O=C(O)COc1ccc(Cl)cc1CN1CCN(S(=O)(=O)c2ccccc2)CC1		0.49	0.0383	fraction unbound at 5 h (in vitro [6]): 0.04; pKa (physchem [7]): 6.8; fraction unbound at 5 h (in vitro [4]): 0.132
O=C(O)COc1ccc([N+](=O)[O-])cc1-c1ccccc1	2.7	-0.69	0.0041	
CCS(=O)(=O)c1ccc(-c2cc(C(F)(F)F)ccc2OCC(=O)O)c(Cl)c1	3.3			microsomal CLint (in vitro [2]; liver microsomes): < 3 µL/min/mg; fraction unbound at 5 h (in vitro [4]): 0.0313
CCC(Oc1ccc(C(F)(F)F)cc1-c1ccc(S(=O)(=O)CC)cc1C)C(=O)O (stereo not drawn)	3.4	0.31		
CCS(=O)(=O)c1ccc(-c2cc(C(F)(F)F)ccc2OC(C)(C)C(=O)O)c(C)c1	3.2			
CCS(=O)(=O)c1ccc(-c2cc(C(F)(F)F)ccc2CCC(=O)O)c(C)c1	4.2		0.0256	microsomal CLint (in vitro [2]; liver microsomes): < 3 µL/min/mg
N#Cc1cn(Cc2ccco2)c(=O)[nH]c1=O	6.1			microsomal CLint (in vitro [2]; liver microsomes): < 3 µL/min/mg
O=C(O)/C=C(/c1ccccc1)C(F)(F)F	2.41			
CCC(CC)NC(=O)c1nnn(-c2ccccc2)c1NS(=O)(=O)c1ccc(C)cc1	3.3	0.46	0.0072	microsomal CLint (in vitro [2]; liver microsomes): 35 µL/min/mg; hepatocyte CLint (in vitro [3]): 56 µL/min/1e6 cells
Cc1ccc(S(=O)(=O)Nc2c(C(=O)N[C@@H](C)C(C)(C)C)c(C(F)(F)F)nn2-c2ccccc2)cc1	3.8		0.0043	microsomal CLint (in vitro [2]; liver microsomes): 120 µL/min/mg; hepatocyte CLint (in vitro [3]): 18.8 µL/min/1e6 cells; fraction unbound at 5 h (in vitro [4]): 0.0097
Cc1ccc2c(c1)c(Sc1ccc(Cl)cc1)c(C)n2CC(=O)O	4.1	2.18		microsomal CLint (in vitro [2]; liver microsomes): 7 µL/min/mg
CCC(CC)NC(=O)c1c(C)nn(C(C)C)c1NS(=O)(=O)c1ccc(C)cc1	4.7	0.92	0.035	fraction unbound at 5 h (in vitro [4]): 0.089
Cc1ccc(S(=O)(=O)Nc2c(C(=O)N[C@@H](C)C(C)(C)C)c(C)nn2C(C)(C)C)cc1	5.5	1.84		solubility thermodynamic (physchem [9]): 513 µM (≈ 223 µg/mL); microsomal CLint (in vitro [2]; microsomes): 37 µL/min/mg
CCC(CC)n1nc(C)c(C(=O)N[C@@H](C)C(C)(C)C)c1NS(=O)(=O)c1ccc(C)cc1	4.6	1.88	0.02	fraction unbound at 5 h (in vitro [4]): 0.0818
COc1nc(Cl)c(Cl)nc1NS(=O)(=O)c1ccc(Cl)s1	3.6		0.0008	microsomal CLint (in vitro [2]; liver microsomes): 10 µL/min/mg
COCCNc1nc(N)c2nc(O)n(Cc3ccccc3)c2n1	10	2.18	0.208	microsomal CLint (in vitro [2]; liver microsomes): 5.5 µL/min/mg

Structure (SMILES)	pKa (physchem [1])	logD (physchem [5]; pH 7.4, LogD7.4)	fraction unbound at 5 h (in vitro [8]; PPB)	further results
O=C(O)c1ccc(CN2CCC(CN3CCC(Oc4ccc(Cl)c(Cl)c4)CC3)CC2)cc1	3.5			microsomal CLint (in vitro [2]; liver microsomes): < 3 µL/min/mg
CN(C)c1ccc(S(=O)(=O)NC(=O)N2CCC(N3CCC(Oc4ccc(Cl)c(Cl)c4)CC3)CC2)cc1	6.1	1.7	0.0017	microsomal CLint (in vitro [2]; liver microsomes): 10.5 µL/min/mg
Cc1ccccc1S(=O)(=O)NC(=O)N1CCC(N2CCC(Oc3ccc(Cl)c(Cl)c3)CC2)CC1	3.4	1.71	0.105	
N#Cc1cccc(S(=O)(=O)NC[C@@H](O)CN2CCC(Oc3ccc(Cl)c(Cl)c3)CC2)c1	10.1			
Cn1c(C(=O)O)c(CCCOc2cccc3ccccc23)c2ccccc21	4.01	2.99		
O=C(NCC12CC3CC(CC(C3)C1)C2)c1cc(CN2CCNCC2)ccc1Cl		1.84	0.0872	fraction unbound at 5 h (in vitro [6]): 0.157; solubility thermodynamic (physchem [9]): 74.1 µM (≈ 29.8 µg/mL); pKa (physchem [7]): 8.85; microsomal CLint (in vitro [2]; microsomes): 18 µL/min/mg; hepatocyte CLint (in vitro [10]): 4.46 µL/min/1e6 cells; hepatocyte CLint (in vitro [3]): 4 µL/min/1e6 cells; fraction unbound at 5 h (in vitro [4]): 0.062
O=C(Nc1ccc([N+](=O)[O-])cc1O)Nc1ccccc1Br	7.7	3.9	0.0027	
Cc1nnc(C(=O)NC(C)(C)c2nc(C(=O)NCc3ccc(F)cc3)c(O)c(=O)n2C)o1	3.97			
N#Cc1ccc2[nH]c(-c3ccc(F)cc3)c(CCCC(=O)NS(N)(=O)=O)c2c1	5.9	1.95	0.0146	solubility thermodynamic (physchem [9]): 26.9 µM (≈ 10.8 µg/mL); microsomal CLint (in vitro [2]; liver microsomes): < 3 µL/min/mg; hepatocyte CLint (in vitro [3]): 19.6 µL/min/1e6 cells
CCOC(=O)N1CCC(c2cc(=O)n(-c3ccccc3)[nH]2)CC1	6.8			
O=C(O)c1coc2ccccc2c1=O	4			
CC1=NN(C(=O)CCS)C(C(=O)O)S1 (stereo not drawn)	2.4			
Cc1cn(Cc2ccccc2)c(=O)[nH]c1=O	9.4			logD (physchem [5]; pH 7.4): 1.19
Nc1nc2nc(SCc3ccccc3)[nH]c(=O)c2s1	7.1			microsomal CLint (in vitro [2]; liver microsomes): < 3 µL/min/mg
C(=C\c1nn[nH]n1)/c1ccccc1	4.5	-0.4		
CS(=O)(=O)NC(=O)CCCc1c(-c2ccc(F)cc2)[nH]c2ccc(C#N)cc12	5.2	1.5	0.013	microsomal CLint (in vitro [2]; microsomes): < 3 µL/min/mg; hepatocyte CLint (in vitro [3]): 14.3 µL/min/1e6 cells
N#Cc1c(O)nc(N)nc1-c1ccccc1	6.52		0.0366	fraction unbound at 5 h (in vitro [4]): 0.0366
O=C(O)c1ccc(-c2ccc(Cl)c(C(=O)NCC34CC5CC(CC(C5)C3)C4)c2)cc1	4.1	2.48	0.0077	fraction unbound at 5 h (in vitro [4]): 0.0074
N#Cc1sccc1NS(=O)(=O)c1ccc(Cl)cc1	5.1			
CC(=O)Nc1ccc(O)cc1 [ACETAMINOPHEN]	9.48	0.25		fraction unbound at 5 h (in vitro [8]): 0.734
CC1(C)S[C@@H]2[C@H](NC(=O)[C@H](NC(=O)N3CCNC3=O)c3ccccc3)C(=O)N2[C@H]1C(=O)O [AZLOCILLIN]	2.41			
CC(C)NCC(O)COc1ccc(COCCOC(C)C)cc1 (stereo not drawn) [BISOPROLOL]		0.1		fraction unbound at 5 h (in vitro [6]): 0.743; pKa (physchem [7]): 9.87; hepatocyte CLint (in vitro [3]): 25.1 µL/min/1e6 cells; fraction unbound at 5 h (in vitro [4]): 0.768

Structure (SMILES)	pKa (physchem [1])	logD (physchem [5]; pH 7.4, LogD7.4)	fraction unbound at 5 h (in vitro [8]; PPB)	further results
Cn1nnnc1SCC1=C(C(=O)O)N2C(=O)[C@@H](NC(=O)[C@H](O)c3ccccc3)[C@H]2SC1 [CEFAMANDOLE]	3.29			
NS(=O)(=O)c1cc(C2(O)NC(=O)c3ccccc32)ccc1Cl (stereo not drawn) [CHLORTHALIDONE]	9.11			solubility thermodynamic (physchem [9]): 501 µM (≈ 170 µg/mL); logD (physchem [5]; pH 7.4): 0.97
O=C(O)c1cc(=O)c2ccccc2o1 [CHROMOCARB]	< 2			
CCn1nc(C(=O)O)c(=O)c2cc3c(cc21)OCO3 [CINOXACIN]	4.36			
CC1=NS(=O)(=O)c2cc(Cl)ccc2N1 [DIAZOXIDE]	8.42	1.05		
CCCCc1oc2ccc(NS(C)(=O)=O)cc2c1C(=O)c1ccc(OCCCN(CCCC)CCCC)cc1 [DRONEDARONE]	7.69		0.0009	
Cc1onc(-c2c(F)cccc2Cl)c1C(=O)N[C@@H]1C(=O)N2[C@@H]1SC(C)(C)[C@@H]2C(=O)O [FLOXACILLIN]	2.46			
O=C(O)c1ccccc1Nc1cccc(C(F)(F)F)c1 [FLUFENAMIC ACID]	3.56			logD (physchem [5]; pH 7.4): 2.01
C[C@@H](C(=O)NS(C)(=O)=O)c1ccc(OS(=O)(=O)C(F)(F)F)cc1 [LADARIXIN]	3.1			microsomal CLint (in vitro [2]; liver microsomes): < 3 µL/min/mg; hepatocyte CLint (in vitro [3]): < 3 µL/min/1e6 cells
Cc1ncc2n1-c1ccc(Cl)cc1C(c1ccccc1F)=NC2 [MIDAZOLAM]				fraction unbound at 5 h (in vitro [6]): 0.02; solubility thermodynamic (physchem [9]): 72.4 µM (≈ 23.6 µg/mL); pKa (physchem [7]): 6.11; hepatocyte CLint (in vitro [10]): 32.4 µL/min/1e6 cells; hepatocyte CLint (in vitro [3]): 121 µL/min/1e6 cells; fraction unbound at 5 h (in vitro [8]): 0.0175; fraction unbound at 5 h (in vitro [4]): 0.0457
CCNC(=O)C[C@@H]1N=C(c2ccc(Cl)cc2)c2cc(OC)ccc2-n2c(C)nnc21 [MOLIBRESIB]				fraction unbound at 5 h (in vitro [6]): 0.324; pKa (physchem [7]): 2.1; microsomal CLint (in vitro [2]; microsomes): 14.1 µL/min/mg; hepatocyte CLint (in vitro [3]): 10.2 µL/min/1e6 cells; fraction unbound at 5 h (in vitro [8]): 0.24; fraction unbound at 5 h (in vitro [4]): 0.314
COC(=O)C1=C(C)NC(C)=C(C(=O)OCCN(C)Cc2ccccc2)C1c1cccc([N+](=O)[O-])c1 (stereo not drawn) [NICARDIPINE]				fraction unbound at 5 h (in vitro [6]): 0.004; solubility thermodynamic (physchem [9]): 7.4 µM (≈ 3.55 µg/mL); pKa (physchem [7]): 7.26; fraction unbound at 5 h (in vitro [4]): 0.0039
O=C(O)CCc1nc(-c2ccccc2)c(-c2ccccc2)o1 [OXAPROZIN]	3.87		0.0005	fraction unbound at 5 h (in vitro [4]): 0.0024
CC1(C)S[C@@H]2[C@H](NC(=O)Cc3ccccc3)C(=O)N2[C@H]1C(=O)O [PENICILLIN G]	3.32			
CCCc1c2c(cc3c(=O)cc(C(=O)O)oc13)CCCC2 [PROCROMIL]	< 2			
CN(C(=O)c1c(O)c2ccccc2n(C)c1=O)c1ccccc1 [ROQUINIMEX]	4.2			
Nc1ccc(S(=O)(=O)Nc2ncccn2)cc1 [SULFADIAZINE]	6.29			
Cc1nnc(NS(=O)(=O)c2ccc(N)cc2)s1 [SULFAMETHIZOLE]	5.4	-1.33	0.0647	
Nc1ccc(S(=O)(=O)Nc2nccs2)cc1 [SULFATHIAZOLE]	7.01	-0.37		
Cc1ccc(S(=O)(=O)NC(=O)NN2CCCCCC2)cc1 [TOLAZAMIDE]	5.8	0.01		
O=C(O)c1cc(=O)c2ccccc2[nH]1 [TRANSTORINE]	2.5			
